Experimental data published in patent publication US5527775A, “Reduction of mammalian neoplasms with phospholipase A2 activating substances” (Enzon, Inc., priority 1994, dated 1996).
Read-outs that look alike come from different tables or passages of the source.

Legend:
PLA2 = conditions: Salari et al., Mol. Pharm. 28:546 (1985), cited from earlier work
C6 glioma cells = test: rat air pouch glioma model: tumor thickness, weight and necrosis; format: in vivo
Protocol: C6 glioma cells (10^7) were injected into rats and allowed to grow for two weeks. The average thickness of the tumors was approximately 7±2 mm in thickness. The animals were then treated with 500 μg of either agarose complexed PLAP peptide SEQ ID NO. 1 or agarose complexed PLAP-like peptide in which the two adjacent prolines were deleted. After three days of treatment, the animals were given a second injection of the peptide and the tumors were measured on day 6 of the treatment regimen.
C6 glioma cells (10^7) were injected into rats and allowed to grow for two weeks as in FIG. 1. By day 14, the tumors were approximately 7 mm in thickness. The animals were then given the indicated concentrations of the agarose complexed PLAP peptide. The thickness of the tumor was monitored after three days of treatment and the values are shown as a percentage of reduction in the tumor cell mass.
Sprague-Dawley rats were injected with 10^6 C-6 glioma cells. The tumors were allowed to grow for 14 days prior to injection of 500 μg of agarose complexed PLAP peptide. Tumor thickness was measured after 3 and 6 days of treatment.
G6 glioma cells, derived from a glioma induced in the Wistar strain of rat and obtained from the American Type Culture Collection (ATCC) were maintained in tissue culture. The cell cultures were grown to confluence in 75 cm^2 tissue culture flasks, detached from the flasks by addition of trypsin/EDTA, washed twice in fresh culture medium, and resuspended at a final concentration of 2×10^6 cells per ml.
Air pouches were formed in female Sprague-Dawley rats (average age 6-8 weeks; average weight 180 grams). Briefly, 20 cc's of sterile air was injected into the subcutaneous tissues on the dorsum of the animal to form an air filled pouch. Inflation of the pouches was maintained by re-injection of sterile air every other day. Pouches were ready for use on day 7.
Suspension of cultured glioma cells (1×10^6 -1×10^7 cells) were injected into the air pouches. By day 14, the tumors typically were of sufficient size to be used as described below.
Animals were injected with 500 μgrams of PLAP peptide bound to agarose beads. A similar number of rats were injected with unmodified agarose beads as a control. In order to ensure uniform distribution of the bound peptide, the total volumes injected were increased to 5 ml by the addition of sterile saline immediately prior to injection. Since tumor growth was characterized by formation of large effusions containing high levels of eicosanoids, the tumors were aspirated immediately prior to injection of PLAP peptide or agarose beads alone.
Seventy-two hours after injection, the animals were euthanized by using CO2 gas. The tumor effusions were aspirated and the tumor cell numbers were determined using a Coulter counter. The samples were frozen and stored at -80° for later eicosanoid assay. The tumor masses were removed through an incision made in the dorsum of the animal and weighed. […]
To determine the effect of concentration of PLAP peptide on tumor cell number and tumor size, Sprague-Dawley rats were injected with 10^6 C-6 glioma cells as described above, and were then treated with either 0, 0.25, 0.5, or 1 mg/rat PLAP. Three days after treatment, the maximum thickness of the tumors was measured.
To determine the length of the effectiveness of administering PLAP peptide, Sprague-Dawley rats were injected with 10^6 C-6 glioma cells as described above. […] Tumor thickness was measured 3 and 6 days after treatment.

[1] = test system: MTVL murine mammary tumor cells; test: survival of mice injected with mammary tumor cells; format: in vivo, Balb C mice; conditions: 200 μg agarose bound peptide 1 and 4 days after tumor cells; vs agarose beads alone; p<0.001 (FIG. 4)
Protocol: (§1) Balb C mice were injected with 10^6 MTVL murine mammary tumor cells. The mice were treated with 200 μg of agarose complexed PLAP peptide 1 and 4 days after injection of the tumor cells. The animals were checked daily for survival. The results obtained are the average for twenty animals in each group. Animals that received no treatment (.smallcircle.),animals that received PLAP ( ) p<0.001.
The effectiveness of stimulating tumor necrosis for tumors other than gliomas was tested. To test effectiveness of the present methods in treating neoplastic mammary cells, Balb C mice were injected with 10^6 MTVL murine mammary tumor cells as described above for the glioma cells. The mice were treated with 200 μg of agarose bound PLAP peptide 1 and 4 days after injection of the tumor cells. The animals were checked daily for survival. FIG. 4 provides the average of the results obtained for twenty animals in each group.

mononuclear cells = test: immunocytochemical analysis of tumors (mononuclear cell infiltrate); format: in vivo, rat; conditions: frozen sections of tumor tissues reacted with MAbs
From the text: Snap-frozen tissue samples were sectioned on a cryotome, fixed in acetone, blocked with levamisole, and then reacted with monoclonal antibodies to cell surface determinants expressed by mononuclear cells. After washing, tissue sections were reacted with biotin-labelled rat anti-mouse IgG monoclonal antibodies, alkaline phosphate-labelled avidin-biotin complex (ABC, Vecta, Burlinghame, Calif.) and color developed by the addition of appropriate substrate. Sections were then mounted in Permount (Fisher Scientific) and read in an Olympus light microscope.
To determine whether PLAP-induced tumor necrosis was associated with specific cellular events, frozen sections of tumor tissues were reacted with MAbs directed at subpopulations of mononuclear cells. […] Thus, PLAP-induced tumor necrosis appears to be mediated through enhanced NK/LAK cell activation.

[2] = test system: LL-2 murine lung tumor cells; test: survival of mice injected with lung tumor cells; format: in vivo, C57 Bl/6 mice; conditions: 200 μg agarose bound peptide 1 and 4 days after tumor cells; vs agarose beads alone; p<0.0001 (FIG. 5)
Protocol: as §1, with “C57 Bl/6” for “Balb C”, “LL-2” for “MTVL”, “lung” for “mammary”, “result” for “results”, “(.smallcircle.), animals” for “(.smallcircle.),animals”, “p<0.0001.” for “p<0.001.”
To test the effectiveness of the present methods in treating neoplastic lung cells, C57 Bl/6 mice were injected with 10^6 LL-2 murine lung tumor cells as described above for the glioma cells. The mice were treated with 200 μg of agarose bound PLAP peptide 1 and 4 days after injection of the tumor cells. The animals were checked daily for survival. FIG. 5 provides the average of the result obtained for twenty animals in each group were used.

[3] = test system: eicosanoids in exudates obtained from tumors; test: measurement of eicosanoids in tumor exudates; format: in vivo, rat; conditions: 72 hours after injection
Protocol: Seventy-two hours after injection, the animals were euthanized by using CO2 gas. The tumor effusions were aspirated and the tumor cell numbers were determined using a Coulter counter. The samples were frozen and stored at -80° for later eicosanoid assay. The tumor masses were removed through an incision made in the dorsum of the animal and weighed. Samples of tumor tissues were stored in formalin for routine histology or snap-frozen in liquid N2 for immunocytochemistry.
Eicosanoid levels in exudates obtained from tumors were determined using enzyme-lined immunoassay kits purchased from Cayman Chemical Company (Ann Arbor, Mich.) and used as recommended by the supplier. Calculations of the amounts of eicosanoids were made using EPA software purchased from the same company.

phospholipase A2 = test: stimulation of phospholipase A2 activity in vitro; format: biochemical; conditions: in vitro (unpublished results)
From the text: As used herein phospholipase A2 activating agents, PLAA, are defined as agents which induce phospholipase A2 activity. A variety of procedures are known in the art for assaying an agent for PLAA activity. These include, but are not limited to, assaying cultured endothelial cells or smooth muscle cells for the release of arachidonic acid in the presence of the agent as well as cell free systems which utilize 1-palmitoyl-2-[14C]arachidonyl-sn-glycero-3-phospho-[methy13H]choline to assay for PLA2 activity (see Clark et al., J. Biol. Chem. 261:10713-10718 (1986) and Clark et al., Biochem. J. 250:125-132 (1988).

neutrophil = conditions: Bomalaski et al., J. Immuno. (1989); cited from earlier work

Molecule: TNF-alpha
- stimulation of PLA2 activity (PLA2): shown to stimulate PLA2 activity

Molecule: CC[C@H](C)[C@H](NC(=O)CN)C(=O)NCC(=O)N[C@@H](C)C(=O)N[C@H](C(=O)N[C@@H](CC(C)C)C(=O)N[C@@H](CCCCN)C(=O)N[C@H](C(=O)N[C@@H](CC(C)C)C(=O)N[C@H](C(=O)N[C@H](C(=O)NCC(=O)N[C@@H](CC(C)C)C(=O)N1CCC[C@H]1C(=O)N[C@@H](C)C(=O)N[C@@H](CC(C)C)C(=O)N[C@H](C(=O)N[C@@H](CO)C(=O)N[C@@H](Cc1c[nH]c2ccccc12)C(=O)N[C@H](C(=O)N[C@@H](CCCCN)C(=O)N[C@@H](CCCNC(=N)N)C(=O)N[C@@H](CCCCN)C(=O)N[C@@H](CCCNC(=N)N)C(=O)N[C@@H](CCC(N)=O)C(=O)N[C@@H](CCC(N)=O)C(N)=O)[C@@H](C)CC)[C@@H](C)CC)[C@@H](C)O)[C@@H](C)O)C(C)C)C(C)C [melittin]
- stimulation of PLA2 activity (PLA2): shown to stimulate PLA2 activity
- stimulation of PLA2 activity (PLA2; listed as Melittin): has phospholipase activating activity

Molecule: GLU-SER-PRO-LEU-ILE-ALA-LYS-VAL-LEU-THR-THR-GLU-PRO -PRO-ILE-ILE-THR-PRO-VAL-ARG-ARG-(THR-LEU) [PLAP peptide]
- reduction in tumor size as a function of amount administered (C6 glioma cells; rats, 0, 0.25, 0.5 or 1 mg/rat, maximum tumor thickness three days after treatment (FIG. 2)): concentration dependent
- duration of tumor necrosis (C6 glioma cells; rats, 500 μg agarose bound peptide, tumor thickness 3 and 6 days after treatment (FIG. 3)): observed to continue even at 6 days
- tumor regression / size of the tumor (C6 glioma cells; rats, 500 μg agarose complexed peptide, second injection after three days, tumors measured on day 6 (FIG. 1)): profound effect on the size of the tumor
- tumor weight compared with control animals (C6 glioma cells; rats, 500 μg peptide bound to agarose beads, 72 hours): reduction in tumor weight
- tumor necrosis (C6 glioma cells; rats, 500 μg peptide bound to agarose beads, tumor tissues examined after 72 hours): caused significant necrosis
- survival of mice injected with mammary tumor cells [1]: increased the survival
- OXI (cytotoxic T lymphocyte) and NRK-1 positive (NK) cells in the infiltrate (mononuclear cells): high numbers
- mononuclear cell infiltrate in tumor tissues (mononuclear cells): stimulated mononuclear cell infiltrate
- survival of mice injected with lung tumor cells [2]: increased the survival
- amount of LTC4 in exudates from tumors compared with those injected with agarose beads [3]: No changes
- amount of PGE2 in treated tumors compared with tumors injected with agarose beads [3]: 50 fold
- amount of PGI2 in exudates from tumors compared with those injected with agarose beads [3]: No changes
- amount of leukotriene B4 (LTB4) in treated tumors compared with tumors injected with agarose beads [3]: 20 fold
- stimulation of phospholipase A2 activity in vitro (phospholipase A2): stimulated phospholipase A2 activity

B1: PLAP: mouse phospholipase A2 activating protein, molecular mass approximately 28,000 (protein, UniProt P27612 1-794, looked up)
Phospholipase A-2-activating …: MASGASRYRLSCSLPGHELDVRGLVCCLYPPGAFVSVSRDRTTRLWAPDSPNRGFTEMHCMSGHSNFVSCVCIIPSSDIYPHGLIATGGNDHNICIFSLDSPMPLYILKGHKDTVCSLSSGKFGTLLSGSWDTTAKVWLNDKCMMTLQGHTAAVWAVKILPEQGLMLTGSADKTIKLWKAGRCERTFLGHEDCVRGLAILSETEFLSCANDASIRRWQITGECLEVYFGHTNYIYSISVFPNSKDFVTTAEDRSLRIWKHGECAQTIRLPAQSIWCCCVLENGDIVVGASDGIIRVFTESEERTASAEEIKAFERELSQATIDSKTGDLGDINAEQLPGREHLSEPGTREGQTRLIRDGERVEAYQWSVSDGRWIKIGDVVGSSGANQQTSGKVLYEGKEFDYVFSIDVNEGGPSYKLPYNVSDDPWLVAYNFLQKNDLNPMFLDQVAKFIIDNTKGQTLGLGNTSFSDPFTGGGRYVPGTSGPSNTVQTADPFTGAGRYMPGSAGMDTTMTGVDPFTGNSAYRSAASKTVNIYFPKKEALTFDQANPTQILGKLKELNGTAPEEKKLTEDDLVLLEKILSLICNNSSEKPTAQQLQILWKAINWPEDIVFPALDILRLSIKHPNVNENFCNEKGDQFSSHLINLLNPKGKPANQLLALRTFCNCFVSQAGQKLMMSQRESLMSHAIELKSGSNKNIHIALATLTLNYSVCFHKDHNIEGKAQCLSVISTILEVVQDLEATFRLLVALGTLISDDSNAIQLAKSLGVDSQIKKYVSVSEPAKVSECCRLVLHLL
- neutrophil aggregation (neutrophil): stimulates neutrophil aggregation
- neutrophil chemokinesis (neutrophil): stimulates
